Patent publication US7432392B2, “Ester derivatives and medical use thereof” (Japan Tobacco Inc., priority 2003, dated 2008)

Molecular target: T1, Microsomal triglyceride transfer protein (MTP) from bovine liver (Bos taurus, UniProt P55156)
T1 construct: the purified MTP was used for the test; from tissue; host or cells: bovine liver
T1 sequence (P55156 12-887): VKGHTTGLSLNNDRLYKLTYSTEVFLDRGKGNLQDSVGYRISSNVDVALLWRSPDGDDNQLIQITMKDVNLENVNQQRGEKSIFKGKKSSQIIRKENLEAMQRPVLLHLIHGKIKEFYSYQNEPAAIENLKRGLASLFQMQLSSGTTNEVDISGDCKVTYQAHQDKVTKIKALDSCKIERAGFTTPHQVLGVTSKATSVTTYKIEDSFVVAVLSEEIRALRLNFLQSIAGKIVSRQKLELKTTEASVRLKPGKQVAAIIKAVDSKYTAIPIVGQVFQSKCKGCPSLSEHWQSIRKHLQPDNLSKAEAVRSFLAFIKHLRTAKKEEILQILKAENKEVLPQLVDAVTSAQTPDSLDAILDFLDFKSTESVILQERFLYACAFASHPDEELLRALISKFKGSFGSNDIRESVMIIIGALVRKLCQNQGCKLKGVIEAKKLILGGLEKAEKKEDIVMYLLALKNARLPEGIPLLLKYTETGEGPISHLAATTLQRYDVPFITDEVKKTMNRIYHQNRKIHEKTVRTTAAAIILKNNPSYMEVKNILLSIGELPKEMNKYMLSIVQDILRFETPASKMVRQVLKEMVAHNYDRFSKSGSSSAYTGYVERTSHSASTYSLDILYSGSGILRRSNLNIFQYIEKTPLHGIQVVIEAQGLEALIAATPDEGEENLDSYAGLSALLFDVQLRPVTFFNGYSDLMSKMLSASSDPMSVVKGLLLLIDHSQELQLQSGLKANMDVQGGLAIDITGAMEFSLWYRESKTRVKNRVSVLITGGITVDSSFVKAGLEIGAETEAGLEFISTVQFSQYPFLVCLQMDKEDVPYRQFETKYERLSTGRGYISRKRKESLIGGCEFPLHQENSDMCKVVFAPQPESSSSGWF
T1 sequence (P05307 21-510 partner): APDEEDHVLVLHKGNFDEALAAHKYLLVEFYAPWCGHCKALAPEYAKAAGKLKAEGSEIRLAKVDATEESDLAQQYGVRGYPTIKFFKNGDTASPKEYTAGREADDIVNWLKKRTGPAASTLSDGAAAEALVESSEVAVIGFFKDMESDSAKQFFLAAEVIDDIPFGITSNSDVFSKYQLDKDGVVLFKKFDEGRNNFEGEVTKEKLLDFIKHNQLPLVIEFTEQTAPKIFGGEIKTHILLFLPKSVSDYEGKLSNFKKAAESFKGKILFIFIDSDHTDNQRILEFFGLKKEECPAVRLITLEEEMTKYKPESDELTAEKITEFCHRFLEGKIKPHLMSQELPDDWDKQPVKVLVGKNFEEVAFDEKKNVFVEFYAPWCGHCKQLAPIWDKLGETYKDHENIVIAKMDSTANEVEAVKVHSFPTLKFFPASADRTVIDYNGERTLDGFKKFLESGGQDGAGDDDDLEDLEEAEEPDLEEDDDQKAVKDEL
Experiment: Inhibition of interliposomal triglyceride (TG) transfer activity by MTP
Type: biochemical
Conditions: MTP-mediated TG transfer between donor and acceptor liposomes, 37° C., one hour
Protocol: Microsomal triglyceride transfer protein (MTP) from bovine liver was partially purified in such a way described below. A buffer (50 mM Tris, 250 mM sucrose, 1 mM EDTA, 0.02% NaN3 (pH 7.4)) for making a homogenate preparation was added to bovine liver, and the mixture was homogenated under ice-cooling, then centrifuged at 10,000×g (4° C., 30 minutes) The supernatant was adjusted to pH 5.1 with hydrochloric acid, and stirred for 30 minutes. The solution was further centrifuged at 10,000×g (4° C., 30 minutes), and 1 mM Tris buffer was added to the precipitated residue, and the mixture was adjusted to pH 8.6 with sodium hydroxide. After addition of 2.7 M ammonium sulfate solution, the mixture was stirred for 30 minutes, then centrifuged at 10,000×g (4° C., 40 minutes). The resulting supernatant was served as a crude extraction fraction of MTP and stored at −80° C. under freezing. In its practical use, the crude extraction fraction of MTP was purified by column chromatography on diethylaminoethyl (DEAE) Sepharose using FPLC (Fast Performance Liquid Chromatography) system, and the purified MTP was used for the test.
Small unilamellar-vesicle (SUV) liposome (donor, 0.25 mol % triolein, 5 mol % cardiolipin) labeled with ^14C-triolein and non-labeled SUV liposome (acceptor, 0.25 mol % triolein) were prepared. A fixed amount of donor and acceptor, and MTP were mixed with a sample dissolved in DMSO or with DMSO. The mixture was incubated in a 15 mM Tris hydrochloride buffer (pH 7.4) containing 40 mM sodium chloride, 1 mM EDTA (ethylenediaminetetraacetic acid), 0.02% NaN3 and 0.5% bovine serum albumin at 37° C. for one hour. After completion of the incubation, a suspension of DEAE cellulose (50% v/v) in 15 mM Tris hydrochloride buffer (pH 7.4) was added to the above solution, and the mixture was centrifuged to separate the donor and the acceptor. The radioactivity in the acceptor was measured by liquid scintillation counter. The value obtained by subtracting the radioactivity in the blank from the amount of radioactivity in the acceptor of a DMSO group was determined as MTP-mediated TG transfer activity, and it was compared with the value obtained by subtracting the radioactivity in the blank from the radioactivity in a sample group. The blank was prepared by adding 15 mM Tris-HCl buffer (pH 7.4) in place of MTP. Inhibition rate (%) was calculated from the values obtained according to the following equation.
Inhibition rate (%)=100×(1 minus ((radioactivity of sample group minus radioactivity of blank group)/(radioactivity of DMSO group minus radioactivity of blank group))). 50% Inhibition rate (IC50) was determined on the basis of the above equation.

Structure (SMILES) | IC50 [nM]
CCNC(=O)C(CCCCC(=O)Oc1c(F)cc(NC(=O)c2ccccc2-c2ccc(C(F)(F)F)cc2)c(C(=O)N(C)C)c1F)(C(=O)NCC)c1cccs1 [Example 3-15] | 100 to 1000
CCOC(=O)C(COC(=O)Cc1ccc(N(C)C(=O)c2ccccc2-c2ccc(C(F)(F)F)cc2)c(OC(C)=O)c1)(C(=O)OCC)c1ccccc1 [Example 1-8] | < 10
CCOC(=O)C(COC(=O)Oc1c(F)cc(NC(=O)c2ccccc2-c2ccc(C(F)(F)F)cc2)c(C(=O)N(C)CCOC)c1F)(C(=O)OCC)c1cccs1 [Example 2-41] | < 10
CCOC(=O)C(COC(=O)Oc1ccc(N(C)C(=O)c2ccccc2-c2ccc(C(F)(F)F)cc2)c(C(=O)N(C)C)c1)(C(=O)OCC)c1ccccc1 [Example 2-17] | 100 to 1000
CCOC(=O)C(COC(=O)Oc1ccc(NC(=O)c2ccc(C)nc2-c2ccc(C(F)(F)F)cc2)c(C(=O)N(C)C)c1)(C(=O)OCC)c1ccccn1 [Example 2-23] | < 10
CCOC(=O)C(COC(=O)Oc1c(F)cc(NC(=O)c2ccccc2-c2ccc(C(F)(F)F)cc2)c(OC(C)C)c1F)(C(=O)OCC)c1cccs1 [Example 2-52] | < 10
CCOC(=O)C(COC(=O)Oc1c(F)cc(NC(=O)c2c(C)cccc2-c2ccc(C(F)(F)F)cc2)c(C(=O)N(C)C)c1F)(C(=O)OCC)c1cccs1 [Example 2-39] | < 10
CCOC(=O)C(COC(=O)Oc1c(F)cc(NC(=O)c2ccc(C)nc2-c2ccc(C(F)(F)F)cc2)c(C(=O)N(C)C)c1F)(C(=O)OCC)c1cccs1 [Example 2-30] | < 10
CCCN(C)C(=O)c1cc(OC(=O)OCC(C(=O)OCC)(C(=O)OCC)c2ccccc2)ccc1NC(=O)c1ccccc1-c1ccc(C(F)(F)F)cc1 [Example 2-13] | < 10
CCNC(=O)C(COCCC(=O)Oc1c(F)cc(NC(=O)c2ccccc2-c2ccc(C(F)(F)F)cc2)c(C(=O)N(C)C)c1F)(C(=O)NCC)c1ccccc1 [Example 3-16] | < 10
CCNC(=O)C(COCCC(=O)Oc1ccc(NC(=O)c2ccccc2-c2ccc(C(F)(F)F)cc2)c(C(=O)N(C)C)c1)(C(=O)NCC)c1ccccc1 [Example 3-3, 3-(2,2′-Bisethylcarbamoyl-2-phenylethoxy)propionic acid 3-dimethylcarbamoyl-4-[(4′-trifluoromethylbiphenyl-2-carbonyl)amino]phenyl ester] | < 10
CCOC(=O)C(COC(=O)Oc1c(F)cc(NC(=O)c2ccccc2-c2ccc(C(F)(F)F)cc2)c(C(=O)N(C)C)c1F)(C(=O)OCC)c1ccccc1 [Example 2-20] | 10 to 100
CCOC(=O)C(COC(=O)Oc1ccc(NC(=O)c2ccccc2-c2ccc(C(F)(F)F)cc2)c(C(=O)N(C)CC)c1)(C(=O)OCC)c1ccccc1 [Example 2-12] | < 10
CCOC(=O)C(COC(=O)Cc1ccc(NC(=O)c2ccc(C)cc2-c2ccc(C(F)(F)F)cc2)c(OC(=O)CC)c1)(C(=O)OCC)c1ccccc1 [Example 1-6] | < 10
CCOC(=O)C(COC(=O)Oc1c(F)cc(NC(=O)c2ccccc2-c2ccc(C(F)(F)F)cc2)c(C(=O)N(C)CCO)c1F)(C(=O)OCC)c1cccs1 [Example 2-45] | 100 to 1000
CCOC(=O)C(COC(=O)Oc1c(F)cc(NC(=O)c2cccc(F)c2-c2ccc(C(F)(F)F)cc2)c(C(=O)N(C)C)c1F)(C(=O)OCC)c1cccs1 [Example 2-33] | < 10

Structure (SMILES) | IC50 [nM]
CCOC(=O)C(COC(=O)Oc1ccc2c(c1)N(C(C)C)C(=O)CN2C(=O)c1ccccc1-c1ccc(C(F)(F)F)cc1)(C(=O)OCC)c1ccccc1 [Example 2-2, 2-[4-Isopropyl-3-oxo-1-(4′-trifluoromethylbiphenyl-2-carbonyl)-1,2,3,4-tetrahydroquinoxalin-6-yloxycarbonyloxymethyl]-2-phenylmalonic acid diethyl ester] | < 10
CCCC(=O)Oc1cc(CC(=O)OCC(C(=O)OCC)(C(=O)OCC)c2ccccc2)ccc1NC(=O)c1ccc(C)cc1-c1ccc(C(F)(F)F)cc1 [Example 1-7] | < 10
CCOC(=O)C(COC(=O)Oc1c(F)cc(NC(=O)c2ccccc2-c2ccc(C(F)(F)F)cc2)c(C(=O)N(C)C)c1F)(C(=O)OCC)c1nccs1 [Example 2-44] | 10 to 100
CCNC(=O)C(COC(=O)Oc1ccc(NC(=O)c2ccccc2-c2ccc(C(F)(F)F)cc2)c(C(=O)N(C)C)c1)(C(=O)NCC)c1ccccc1 [Example 2-10] | < 10
CCOC(=O)C(CCC(=O)Oc1c(F)cc(NC(=O)c2ccccc2-c2ccc(C(F)(F)F)cc2)c(C(=O)NC)c1F)(C(=O)OCC)c1ccccc1 [Example 3-10] | < 10
CCOC(=O)C(COC(=O)Oc1c(F)cc(NC(=O)c2ccccc2-c2ccc(C(F)(F)F)cc2)c(OCC)c1F)(C(=O)OCC)c1cccs1 [Example 2-51] | < 10
CCOC(=O)C(COC(=O)Oc1ccc(NC(=O)c2cnc(NC)nc2-c2ccc(C(F)(F)F)cc2)c(C(=O)N(C)C)c1)(C(=O)OCC)c1ccccc1 [Example 2-27] | 10 to 100
CCOC(=O)C(COC(=O)OCc1ccc(NC(=O)c2ccccc2-c2ccc(C(F)(F)F)cc2)c(C(=O)N(C)C)c1)(C(=O)OCC)c1ccccc1 [Example 2-5] | < 10
CCOC(=O)C(CCC(=O)Oc1c(F)cc(NC(=O)c2ccc(C)cc2-c2ccc(C(F)(F)F)cc2)c(C(=O)N(C)C)c1F)(C(=O)OCC)c1ccccc1 [Example 3-22] | < 10
CCOC(=O)C(COC(=O)Oc1c(F)cc(NC(=O)c2ccccc2-c2ccc(C(F)(F)F)cc2)c(C(=O)N2CCOCC2)c1F)(C(=O)OCC)c1cccs1 [Example 2-38] | 10 to 100
CCOC(=O)C(COC(=O)Oc1c(F)cc(NC(=O)c2ccccc2-c2ccc(C(F)(F)F)cc2)c(C(=O)N(C)C)c1F)(C(=O)OCC)c1cccs1 [Example 2-26] | < 10
CCOC(=O)C(CCC(=O)OCc1ccc(NC(=O)c2ccccc2-c2ccc(C(F)(F)F)cc2)c(C(=O)N(C)C)c1)(C(=O)OCC)c1ccccc1 [Example 3-7] | < 10
CCOC(=O)C(COC(=O)Oc1ccc(NC(=O)c2ccc(C)cc2-c2ccc(C(F)(F)F)cc2)c(C(=O)N(C)C)c1)(C(=O)OCC)c1cccs1 [Example 2-9] | < 10
CCNC(=O)C(CCCC(=O)Oc1c(F)cc(NC(=O)c2ccccc2-c2ccc(C(F)(F)F)cc2)c(C(=O)N(C)C)c1F)(C(=O)NCC)c1cccs1 [Example 3-17] | 10 to 100
CCOC(=O)C(COC(=O)Oc1ccc(NC(=O)c2ccc(C)cc2-c2ccc(C(F)(F)F)cc2)c(C(=O)N(C)C)c1)(C(=O)OCC)c1ccccc1 [Example 2-8] | < 10
